Where “and” joins values, the source holds several entries; their conditions need not be identical. Equal values may be shown once. Inconclusive results and toxic doses are left out. Rule for the calls: active = survival T/C of 150% or more; inactive = T/C below 125% in these data.
System: CD2F1 mice, L1210 leukemia ip, survival T/C
Assay: NCI In Vivo Anticancer Drug Screen. Data for tumor model L1210 Leukemia (intraperitoneal) in CD2F1 (CDF1) mice
Conditions: higher = longer survival
Outline: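 Antitumor effect is scored in animals hosting a serially transplanted tumor. Values compare compound-dosed animals against vehicle-only controls as a simple quotient.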

[1] = endpoint: median survival time, dose: 12.5 mg/kg/injection, schedule: Q04DX003 (ip), vehicle: saline with Tween-80
[2] = endpoint: median survival time, dose: 25.0 mg/kg/injection, schedule: Q04DX003 (ip), vehicle: saline with Tween-80
[3] = endpoint: median survival time, dose: 50.0 mg/kg/injection, schedule: Q04DX003 (ip), vehicle: saline with Tween-80
[4] = endpoint: median survival time, dose: 100.0 mg/kg/injection, schedule: Q04DX003 (ip), vehicle: saline with Tween-80
[5] = endpoint: mean survival time, dose: 62.5 mg/kg/injection, schedule: Q01DX001 (ip), vehicle: distilled water + Tween-80
[6] = endpoint: mean survival time, dose: 125.0 mg/kg/injection, schedule: Q01DX001 (ip), vehicle: distilled water + Tween-80
[7] = endpoint: mean survival time, dose: 250.0 mg/kg/injection, schedule: Q01DX001 (ip), vehicle: distilled water + Tween-80
[8] = endpoint: mean survival time, dose: 500.0 mg/kg/injection, schedule: Q01DX001 (ip), vehicle: distilled water + Tween-80
[9] = endpoint: mean survival time, dose: 25.0 mg/kg/injection, schedule: Q01DX009 (ip), vehicle: saline with Tween-80
[10] = endpoint: mean survival time, dose: 50.0 mg/kg/injection, schedule: Q01DX009 (ip), vehicle: saline with Tween-80
[11] = endpoint: mean survival time, dose: 100.0 mg/kg/injection, schedule: Q01DX009 (ip), vehicle: saline with Tween-80
[12] = endpoint: mean survival time, dose: 200.0 mg/kg/injection, schedule: Q01DX009 (ip), vehicle: saline with Tween-80
[13] = endpoint: mean survival time, dose: 400.0 mg/kg/injection, schedule: Q01DX009 (ip), vehicle: saline with Tween-80
[14] = endpoint: mean survival time, dose: 100.0 mg/kg/injection, schedule: Q04DX003 (ip), vehicle: saline with Tween-80
[15] = endpoint: mean survival time, dose: 200.0 mg/kg/injection, schedule: Q04DX003 (ip), vehicle: saline with Tween-80
[16] = endpoint: mean survival time, dose: 400.0 mg/kg/injection, schedule: Q04DX003 (ip), vehicle: saline with Tween-80

Measured: T/C

[C-]#[O+].[Cl][Sn]([Cl])[Cl].[Cl][Sn]([Cl])[Cl].[Pt].c1ccncc1
inactive: endpoint: median survival time, dose: 3.12 mg/kg/injection, schedule: Q04DX003 (ip), vehicle: saline with Tween-80 113 % of control | endpoint: median survival time, dose: 6.25 mg/kg/injection, schedule: Q04DX003 (ip), vehicle: saline with Tween-80 110 % of control | [1] 110 % of control | [2] 102 % of control | [3] 108 % of control | [4] 108 % of control | endpoint: median survival time, dose: 200.0 mg/kg/injection, schedule: Q04DX003 (ip), vehicle: saline with Tween-80 120 % of control

Nc1cccc(OCc2nc(N)nc(N)c2-c2ccc(Cl)cc2)c1
inactive: endpoint: mean survival time, dose: 37.5 mg/kg/injection, schedule: Q01DX001 (ip), vehicle: saline 96 % of control | endpoint: mean survival time, dose: 75.0 mg/kg/injection, schedule: Q01DX001 (ip), vehicle: saline 100 % of control | endpoint: mean survival time, dose: 150.0 mg/kg/injection, schedule: Q01DX001 (ip), vehicle: saline 91 % of control

NP(=O)(Oc1cccc2c(OP(N)(=O)N(CCCl)CCCl)cccc12)N(CCCl)CCCl (stereo unspecified)
inactive: endpoint: mean survival time, dose: 31.25 mg/kg/injection, schedule: Q01DX001 (ip), vehicle: distilled water + Tween-80 95 % of control | [5] 95 % of control | [6] 95 % of control | [7] 97 % of control | [8] 95 % of control

CN(C)C1CCCC(OC(=O)c2ccccc2)C1 (stereo unspecified)
inactive: endpoint: mean survival time, dose: 25.0 mg/kg/injection, schedule: Q04DX002 (ip), vehicle: saline 97 % of control | endpoint: mean survival time, dose: 50.0 mg/kg/injection, schedule: Q04DX002 (ip), vehicle: saline 105 % of control | endpoint: mean survival time, dose: 100.0 mg/kg/injection, schedule: Q01DX001 (ip), vehicle: saline 101 % of control | endpoint: mean survival time, dose: 100.0 mg/kg/injection, schedule: Q04DX002 (ip), vehicle: saline 94 % of control | endpoint: mean survival time, dose: 200.0 mg/kg/injection, schedule: Q01DX001 (ip), vehicle: saline 100 % of control

COC(=O)Nc1ccccc1
inactive: endpoint: mean survival time, dose: 100.0 mg/kg/injection, schedule: Q04DX003 (ip), vehicle: saline + alcohol 101 % of control | endpoint: mean survival time, dose: 200.0 mg/kg/injection, schedule: Q04DX003 (ip), vehicle: saline + alcohol 98 % of control | endpoint: mean survival time, dose: 400.0 mg/kg/injection, schedule: Q04DX003 (ip), vehicle: saline + alcohol 98 % of control

O=[N+]([O-])c1ccc(-n2[nH]nnc2=S)cc1
inactive: endpoint: mean survival time, dose: 12.5 mg/kg/injection, schedule: Q01DX009 (ip), vehicle: saline with Tween-80 95 % of control | [9] 93 % of control | [10] 102 % of control | endpoint: mean survival time, dose: 100.0 mg/kg/injection, schedule: Q01DX009 (ip), vehicle: acetone 95 % of control | [11] 96 % of control | endpoint: mean survival time, dose: 200.0 mg/kg/injection, schedule: Q01DX009 (ip), vehicle: acetone 94 % of control | [12] 96 % of control | [13] 93 % of control

C#CC(=O)OCC#CCOC(=O)C#C
inactive: endpoint: mean survival time, dose: 0.75 mg/kg/injection, schedule: Q01DX009 (ip), vehicle: saline with Tween-80 98 % of control | endpoint: mean survival time, dose: 1.5 mg/kg/injection, schedule: Q01DX009 (ip), vehicle: saline with Tween-80 100 % of control | endpoint: mean survival time, dose: 3.0 mg/kg/injection, schedule: Q01DX009 (ip), vehicle: saline with Tween-80 98 % of control | endpoint: mean survival time, dose: 6.0 mg/kg/injection, schedule: Q01DX009 (ip), vehicle: saline with Tween-80 98 % of control | endpoint: mean survival time, dose: 12.0 mg/kg/injection, schedule: Q01DX009 (ip), vehicle: saline with Tween-80 90 % of control

C[n+]1ccccc1CCC(=O)Nc1ccccc1
inactive: [9] 103 % of control | [10] 95 % of control | [11] 88 % of control

CCCCCCCCCCCCCCCCCC[Se][Se]CCCCCCCCCCCCCCCCCC
inactive: endpoint: mean survival time, dose: 25.0 mg/kg/injection, schedule: Q04DX003 (ip), vehicle: saline with Tween-80 93 % of control | endpoint: mean survival time, dose: 50.0 mg/kg/injection, schedule: Q04DX003 (ip), vehicle: saline with Tween-80 95 % of control | [14] 95 % of control

[Cl][Pt+2][Cl].[NH-]c1ccccc1-c1ccccc1[NH-]
inactive: endpoint: mean survival time, dose: 3.13 mg/kg/injection, schedule: Q04DX003 (ip), vehicle: saline 104 % of control | endpoint: mean survival time, dose: 6.25 mg/kg/injection, schedule: Q04DX003 (ip), vehicle: saline 109 % of control | endpoint: mean survival time, dose: 12.5 mg/kg/injection, schedule: Q04DX003 (ip), vehicle: saline 120 % of control | endpoint: mean survival time, dose: 25.0 mg/kg/injection, schedule: Q04DX003 (ip), vehicle: saline 113 % of control | endpoint: mean survival time, dose: 50.0 mg/kg/injection, schedule: Q04DX003 (ip), vehicle: saline 109 % of control | endpoint: mean survival time, dose: 100.0 mg/kg/injection, schedule: Q04DX003 (ip), vehicle: saline 94 % of control

COc1ccc2c(O)c(Cc3ccccc3)c(=O)oc2c1
inactive: [10] 112 % of control | [11] 103 % of control | [12] 103 % of control

CCOC(=O)c1sc(N)c(C(=O)OCC)c1C
inactive: [11] 98 % of control | [14] 95 % of control | [12] 93 % of control | [15] 95 % of control | [13] 91 % of control | [16] 101 % of control

CC1(c2ccc3ccccc3c2)OC(=O)c2ccccc21 (stereo unspecified)
inactive: [1] 111 % of control | [2] 100 % of control | [3] 111 % of control | [4] 88 % of control

CC(=O)OC1CCC2(C)C(CCC3C2CCC2(C)C3CC3OC4(CCC(C)CO4)C(C)C32)C1 (stereo unspecified)
inactive: [14] 95 % of control and 92 % of control | [15] 89 % of control and 90 % of control and 95 % of control | [16] 87 % of control and 90 % of control

COC(=O)c1cccc2c1/C(=N/NC(N)=S)c1ccccc1-2
inactive: endpoint: mean survival time, dose: 50.0 mg/kg/injection, schedule: Q01DX001 (ip), vehicle: carboxymethylcellulose (CMC) 102 % of control | endpoint: mean survival time, dose: 100.0 mg/kg/injection, schedule: Q01DX001 (ip), vehicle: carboxymethylcellulose (CMC) 98 % of control | endpoint: mean survival time, dose: 200.0 mg/kg/injection, schedule: Q01DX001 (ip), vehicle: carboxymethylcellulose (CMC) 102 % of control | endpoint: mean survival time, dose: 400.0 mg/kg/injection, schedule: Q01DX001 (ip), vehicle: carboxymethylcellulose (CMC) 102 % of control

CC(=O)N(/C=C\C=C\c1sc2ccccc2[n+]1C)c1ccccc1
inactive: endpoint: mean survival time, dose: 12.5 mg/kg/injection, schedule: Q01DX009 (ip), vehicle: other 108 % of control | endpoint: mean survival time, dose: 25.0 mg/kg/injection, schedule: Q01DX009 (ip), vehicle: other 115 % of control

COc1cc2c(c(OC)c1OC)-c1ccc(OC)c(=O)cc1C(=O)CC2
inactive: endpoint: mean survival time, dose: 5.0 mg/kg/injection, schedule: Q01DX Z (ip), vehicle: saline 121 % of control | endpoint: mean survival time, dose: 7.0 mg/kg/injection, schedule: Q01DX Z (ip), vehicle: saline 121 % of control | endpoint: mean survival time, dose: 10.0 mg/kg/injection, schedule: Q01DX Z (ip), vehicle: saline 114 % of control

CC1(C)OC2C3COP(=O)(N(CCCl)CCCl)NC(O3)C2O1 (stereo unspecified)
inactive: endpoint: mean survival time, dose: 3.9 mg/kg/injection, schedule: Q01DX001 (ip), vehicle: distilled water + Tween-80 98 % of control | endpoint: mean survival time, dose: 3.9 mg/kg/injection, schedule: Q01DX001 (ip), vehicle: distilled water + alcohol 103 % of control | endpoint: mean survival time, dose: 7.8 mg/kg/injection, schedule: Q01DX001 (ip), vehicle: distilled water + Tween-80 98 % of control | endpoint: mean survival time, dose: 7.8 mg/kg/injection, schedule: Q01DX001 (ip), vehicle: distilled water + alcohol 108 % of control | endpoint: mean survival time, dose: 15.6 mg/kg/injection, schedule: Q01DX001 (ip), vehicle: distilled water + alcohol 98 % of control | endpoint: mean survival time, dose: 31.2 mg/kg/injection, schedule: Q01DX001 (ip), vehicle: distilled water + Tween-80 98 % of control | endpoint: mean survival time, dose: 31.2 mg/kg/injection, schedule: Q01DX001 (ip), vehicle: distilled water + alcohol 103 % of control | endpoint: mean survival time, dose: 31.3 mg/kg/injection, schedule: Q01DX001 (ip), vehicle: distilled water + Tween-80 98 % of control | [5] 98 % of control | [6] 96 % of control | [7] 96 % of control | [8] 97 % of control

COc1ccccc1OC(=O)CCl
inactive: [14] 111 % of control | [15] 101 % of control | [16] 88 % of control

C[N+](C)(C)CCOC(=O)Nc1ccc(C(c2ccc(NC(=O)OCC[N+](C)(C)C)cc2)c2ccc(NC(=O)OCC[N+](C)(C)C)cc2)cc1
inactive: endpoint: mean survival time, dose: 0.25 mg/kg/injection, schedule: Q04DX003 (ip), vehicle: saline with Tween-80 97 % of control | endpoint: mean survival time, dose: 0.5 mg/kg/injection, schedule: Q04DX003 (ip), vehicle: saline with Tween-80 96 % of control | endpoint: mean survival time, dose: 1.0 mg/kg/injection, schedule: Q04DX003 (ip), vehicle: saline with Tween-80 94 % of control
